Test [1] in a line: glutathione binding assay. Particulars: 5 mM glutathione, 10 μM Btk inhibitor, room temperature, HPLC. The method, then: A calculated value (e.g (1/Btk IC50)/Glutathione conjugation rate) as shown in the Table 2) is used to compare compounds for their ratio between potency at inhibiting their target and their non-specific binding to other SH groups, such as those in glutathione. […] Calculated ratios such as these are used to quantitatively compare different compounds and select compounds for further study.
For the glutathione binding assays, 5 mM glutathione, 10 μM Btk inhibitor in DMSO (10 μL) and 6 equivalents of N′N′ Diisopropyl ethyl amine were combined in 1 mL potassium phosphate buffer. The mixture was incubated for 0, 15, 60 minutes at room temperature and the reaction was stopped with 10 equivalents of formic acid. 50 μL of each reaction mixture was injected on HPLC (Mobil Phase A: 0.2% formic acid in water, Mobile Phase B: 0.2% formic acid in acetonitrile, HPLC Column: Metasil Basic 3μ, 150×4.6 mm, 10% B, Gradient: 10% to 90% B, Detection: UV/Vis […]). Rate of reaction was reported as nmole GSH conjugate conversion per minute from the normalized ratio for area under the curve from HPLC chromatograms for both GSH conjugate and the parent.

In test [2] the target is EGFR (Homo sapiens (Human), UniProt P00533). Put plainly: in vitro HotSpot kinase assay, EGFR. Conditions: Table 2, 1 uM ATP, one hour incubation with inhibitor. It is filed as biochemical.
The target of test [3] is BTK (Homo sapiens (Human), UniProt Q06187). Briefly: in vitro HotSpot kinase assay, BTK. In kind it is biochemical. Particulars: Table 2, 1 uM ATP, one hour incubation with inhibitor.
Test [4] has as its system lymphoma cell line DOHH2. Put plainly: DOHH2 cell proliferation assay (Alamar Blue). In kind it is cell-based. The method, then: After 72 hours, cell number was measured using Alamar Blue using manufacturer's protocol. A dilution series of untreated cells was run in parallel to verify that the Alamar Blue assay reliably reflected cell number and that growth conditions were not limiting. […] GI50 values were confirmed in two or more separate experiments for each cell line.
Analogs are generated that are Btk inhibitors and that are cytotoxic to the lymphoma cell line DOHH2. For the DOHH2 cell proliferation assay, cells were seeded in 96-well plates in standard growth media (RPMI+10% fetal calf serum) and compounds were added in a 9-point dilution series ranging from 10 uM to 0.04 uM with DMSO at 0.1% final concentration in all wells. After 72 hours, cell number was measured using Alamar Blue using manufacturer's protocol. A dilution series of untreated cells was run in parallel to verify that the Alamar Blue assay reliably reflected cell number and that growth conditions were not limiting.

The target in test [5] is JAK3 (Homo sapiens (Human), UniProt P52333). Put plainly: in vitro HotSpot kinase assay, JAK3. It is filed as biochemical. Conditions: Table 2, 1 uM ATP, one hour incubation with inhibitor.
The target of test [6] is ITK (Homo sapiens (Human), UniProt Q08881). Put plainly: in vitro HotSpot kinase assay, ITK. In kind it is biochemical. Particulars: Table 2, 1 uM ATP, one hour incubation with inhibitor.
For test [7], the target named is LCK (Homo sapiens (Human), UniProt P06239). Put plainly: in vitro HotSpot kinase assay, LCK. It is filed as biochemical. Conditions: Table 2, 1 uM ATP, one hour incubation with inhibitor.

Here are results for 16 molecules from patent publication US20240317756A1, “INHIBITORS OF BRUTON'S TYROSINE KINASE” (Pharmacyclics LLC, priority 2006, published 2024).

As usually defined, the IC50 is the concentration that inhibits the measured activity by half. Read a low IC50 as greater potency. The GI50 is the concentration giving 50% growth inhibition. Read a high GI50 as lower sensitivity of the cells.

Chain of JAK3 (P52333 whole entry, species assumed): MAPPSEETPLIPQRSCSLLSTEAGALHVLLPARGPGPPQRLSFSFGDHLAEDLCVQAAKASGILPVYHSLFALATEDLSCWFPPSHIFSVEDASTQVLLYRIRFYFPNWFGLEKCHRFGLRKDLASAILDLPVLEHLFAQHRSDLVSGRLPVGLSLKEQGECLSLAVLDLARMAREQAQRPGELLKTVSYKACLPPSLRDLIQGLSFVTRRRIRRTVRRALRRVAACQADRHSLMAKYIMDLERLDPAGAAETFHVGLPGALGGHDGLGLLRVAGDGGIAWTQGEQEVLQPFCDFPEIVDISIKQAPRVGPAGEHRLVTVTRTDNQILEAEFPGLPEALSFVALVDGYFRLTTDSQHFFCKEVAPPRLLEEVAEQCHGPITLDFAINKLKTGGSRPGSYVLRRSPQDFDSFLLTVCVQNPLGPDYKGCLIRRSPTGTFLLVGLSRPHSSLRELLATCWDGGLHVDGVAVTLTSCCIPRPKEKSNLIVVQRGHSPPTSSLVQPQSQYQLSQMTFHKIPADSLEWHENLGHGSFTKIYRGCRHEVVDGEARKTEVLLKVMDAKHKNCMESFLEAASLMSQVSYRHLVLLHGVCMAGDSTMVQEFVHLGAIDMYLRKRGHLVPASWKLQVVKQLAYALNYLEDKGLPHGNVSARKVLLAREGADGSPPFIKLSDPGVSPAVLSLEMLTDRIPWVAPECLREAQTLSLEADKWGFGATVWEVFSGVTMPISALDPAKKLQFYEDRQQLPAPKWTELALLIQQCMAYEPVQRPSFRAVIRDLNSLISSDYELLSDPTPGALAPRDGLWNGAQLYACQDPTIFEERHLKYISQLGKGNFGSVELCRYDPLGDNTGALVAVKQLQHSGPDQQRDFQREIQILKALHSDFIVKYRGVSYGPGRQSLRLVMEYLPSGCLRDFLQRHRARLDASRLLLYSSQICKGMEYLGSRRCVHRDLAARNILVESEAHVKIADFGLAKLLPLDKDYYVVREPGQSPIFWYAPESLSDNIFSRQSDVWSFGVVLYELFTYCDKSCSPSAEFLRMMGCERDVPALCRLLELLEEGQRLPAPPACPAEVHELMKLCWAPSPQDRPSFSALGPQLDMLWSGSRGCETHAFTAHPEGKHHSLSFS
Chain of BTK (Q06187 whole entry): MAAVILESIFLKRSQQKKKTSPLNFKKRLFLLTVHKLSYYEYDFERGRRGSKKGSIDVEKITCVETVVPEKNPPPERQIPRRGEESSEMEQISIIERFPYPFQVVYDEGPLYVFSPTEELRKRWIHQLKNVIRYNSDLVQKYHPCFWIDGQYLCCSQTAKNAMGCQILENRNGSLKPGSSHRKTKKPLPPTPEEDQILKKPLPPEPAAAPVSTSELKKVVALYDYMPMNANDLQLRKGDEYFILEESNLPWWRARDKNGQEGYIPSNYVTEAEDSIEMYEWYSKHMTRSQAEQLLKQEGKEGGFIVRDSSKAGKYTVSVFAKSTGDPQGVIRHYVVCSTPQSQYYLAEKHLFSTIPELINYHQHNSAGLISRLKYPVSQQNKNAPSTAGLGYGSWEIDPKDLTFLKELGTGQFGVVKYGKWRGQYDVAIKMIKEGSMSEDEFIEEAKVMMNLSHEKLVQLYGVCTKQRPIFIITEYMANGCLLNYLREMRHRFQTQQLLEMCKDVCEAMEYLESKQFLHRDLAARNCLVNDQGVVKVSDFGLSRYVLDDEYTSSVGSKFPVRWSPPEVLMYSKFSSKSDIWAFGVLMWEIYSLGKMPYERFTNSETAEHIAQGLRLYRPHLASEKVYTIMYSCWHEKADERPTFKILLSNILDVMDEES
Chain of ITK (Q08881 whole entry, species assumed): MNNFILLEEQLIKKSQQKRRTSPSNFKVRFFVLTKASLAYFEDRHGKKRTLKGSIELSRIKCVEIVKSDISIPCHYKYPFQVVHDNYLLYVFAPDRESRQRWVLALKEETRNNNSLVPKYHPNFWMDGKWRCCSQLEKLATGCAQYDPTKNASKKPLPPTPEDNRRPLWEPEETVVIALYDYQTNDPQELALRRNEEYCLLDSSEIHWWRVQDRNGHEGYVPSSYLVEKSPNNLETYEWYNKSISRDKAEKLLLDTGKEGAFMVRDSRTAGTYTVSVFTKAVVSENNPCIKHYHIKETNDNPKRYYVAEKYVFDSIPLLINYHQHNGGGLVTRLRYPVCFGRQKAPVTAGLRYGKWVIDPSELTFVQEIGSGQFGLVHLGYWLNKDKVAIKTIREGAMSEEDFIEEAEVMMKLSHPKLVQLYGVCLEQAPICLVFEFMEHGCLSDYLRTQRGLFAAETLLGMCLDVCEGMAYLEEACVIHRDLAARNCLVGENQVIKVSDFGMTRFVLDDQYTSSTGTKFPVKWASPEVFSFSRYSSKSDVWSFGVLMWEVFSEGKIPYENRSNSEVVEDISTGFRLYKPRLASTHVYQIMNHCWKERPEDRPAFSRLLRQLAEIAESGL
Chain of LCK (P06239 whole entry, species assumed): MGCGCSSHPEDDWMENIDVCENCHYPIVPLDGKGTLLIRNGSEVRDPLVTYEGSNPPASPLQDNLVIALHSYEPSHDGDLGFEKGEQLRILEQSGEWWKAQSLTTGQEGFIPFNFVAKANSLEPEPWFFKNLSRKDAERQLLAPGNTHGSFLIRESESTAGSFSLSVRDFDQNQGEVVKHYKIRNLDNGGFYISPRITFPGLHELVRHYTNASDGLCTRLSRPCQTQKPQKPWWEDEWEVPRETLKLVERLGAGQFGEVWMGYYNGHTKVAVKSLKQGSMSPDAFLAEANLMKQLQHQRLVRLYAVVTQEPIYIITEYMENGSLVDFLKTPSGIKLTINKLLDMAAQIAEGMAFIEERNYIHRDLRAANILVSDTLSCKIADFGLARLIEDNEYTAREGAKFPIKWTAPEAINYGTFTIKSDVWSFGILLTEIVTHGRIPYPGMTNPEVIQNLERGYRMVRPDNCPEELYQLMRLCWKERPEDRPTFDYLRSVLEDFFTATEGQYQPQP

For the molecule `Nc1ncnc2c1c(-c1ccc(Oc3ccccc3)cc1)nn2C1CCCN(C(=O)/C=C/CN2CCOCC2)C1` (stereo not shown) [Compound 5, (E)-1-(3-(4-amino-3-(4-phenoxyphenyl)-1H-pyrazolo[3,4-d]pyrimidin-1-yl)piperidin-1-yl)-4-morpholinobut-2-en-1-one], the “Glutathione Conj Rate” value in test [1] is given as 0.004 nmol/min. Also, the IC50 in test [2] came to 326 nM; in test [3] it was 5.6 nM.
For `C=CC(=O)N1CCC(n2nc(-c3ccc(Oc4ccccc4)cc3)c3c(N)ncnc32)CC1` [Compound 6], the “Glutathione Conj Rate” value in test [1] came to 0.39 nmol/min. In test [3], this molecule had an IC50 of 3.1 nM.
In the case of `C=CC(=O)N[C@H]1CC[C@H](n2nc(-c3ccc(Oc4ccccc4)cc3)c3c(N)ncnc32)CC1` [Compound 10, N-((1r,4r)-4-(4-amino-3-(4-phenoxyphenyl)-1H-pyrazolo[3,4-d]pyrimidin-1-yl)cyclohexyl)acrylamide], the GI50 in test [4] (Homo sapiens, DOHH-2, 72 hours) is < 30 nM. Also, the results for the IC50 in test [5] and in test [6] were > 10000 nM and 1950 nM, respectively.
Turning to `CN(C)C/C=C/C(=O)N1CCC[C@@H]1Cn1nc(-c2ccc(Oc3ccccc3)cc2)c2c(N)ncnc21` [Compound 11, (E)-1-((R)-2-((4-amino-3-(4-phenoxyphenyl)-1H-pyrazolo[3,4-d]pyrimidin-1-yl)methyl)pyrolidin-1-yl)-4-(dimethylamino)but-2-en-1-one], the “Glutathione Conj Rate” value in test [1] is listed as 0.004525 nmol/min. Further, the IC50 in test [2] is 18.9 nM; in test [7] it was 2.43 nM; in test [5] it was > 10000 nM; in test [3], 0.92 nM; in test [6], 6890 nM. In test [4] (Homo sapiens, DOHH-2, 72 hours), the GI50 was > 10000 nM.
Take `C=CC(=O)N1CCC[C@@H]1Cn1nc(-c2ccc(Oc3ccccc3)cc2)c2c(N)ncnc21` [Compound 13, 1-((R)-2-((4-amino-3-(4-phenoxyphenyl)-1H-pyrazolo[3,4-d]pyrimidin-1-yl)methyl)pyrrolidin-1-yl)prop-2-en-1-one]: the IC50 in test [2] stood at 18.8 nM; in test [7], 1.56 nM; in test [5], 13000 nM; in test [3], 0.67 nM; in test [6], 3010 nM. For the same molecule, it took 240 nM to inhibit growth in test [4] (Homo sapiens, DOHH-2, 72 hours) by half (GI50).
For the molecule `C=CC(=O)N1CCC[C@H]1Cn1nc(-c2ccc(Oc3ccccc3)cc2)c2c(N)ncnc21` [Compound 14, 1-((S)-2-((4-amino-3-(4-phenoxyphenyl)-1H-pyrazolo[3,4-d]pyrimidin-1-yl)methyl)pyrrolidin-1-yl)prop-2-en-1-one], the IC50 in test [2] amounted to 2.3 nM; in test [7] it was 9.24 nM; in test [5], 1460 nM; in test [3] it was 0.39 nM; in test [6], 592 nM. Besides, the GI50 in test [4] (Homo sapiens, DOHH-2, 72 hours) was found to be 370 nM.
As to `CC#CC(=O)N1CCC[C@@H]1Cn1nc(-c2ccc(Oc3ccccc3)cc2)c2c(N)ncnc21` [Compound 15, 1((R)-2-((4-amino-3-(4-phenoxyphenyl)-1H-pyrazolo[3,4-d]pyrimidin-1-yl)methyl)pyrrolidin-1-yl)but-2-yn-1-one], the IC50 in test [2] was 289 nM; in test [7], 5.9 nM; in test [5], > 10000 nM; in test [3], 4.16 nM; in test [6], 21100 nM. In test [4] (Homo sapiens, DOHH-2, 72 hours), this molecule displayed a GI50 of 590 nM.
In the case of `CC#CC(=O)N1CCC[C@H]1Cn1nc(-c2ccc(Oc3ccccc3)cc2)c2c(N)ncnc21` [Compound 16, 1-((S)-2-((4-amino-3-(4-phenoxyphenyl)-1H-pyrazolo[3,4-d]pyrimidin-1-yl)methyl)pyrrolidin-1-yl)but-2-yn-1-one], the IC50 in test [2] is 2810 nM; in test [7], 3.82 nM; in test [5], > 10000 nM; in test [3], 3.14 nM; in test [6], > 10000 nM. Besides, the GI50 in test [4] (Homo sapiens, DOHH-2, 72 hours) was 210 nM.
For `CN(C)C/C=C/C(=O)N[C@H]1CC[C@H](n2nc(-c3ccc(Oc4ccccc4)cc3)c3c(N)ncnc32)CC1` [Compound 18], the IC50 in test [2] was 22.5 nM; in test [7] it was 0.76 nM; in test [5], > 10000 nM; in test [3], 1.38 nM; in test [6], 2540 nM. The GI50 in test [4] (72 hours) is < 30 nM.
On to `C=CC(=O)N(C)CCn1nc(-c2ccc(Oc3ccccc3)cc2)c2c(N)ncnc21` [Compound 19, N-(2-(4-amino-3-(4-phenoxyphenyl)-1H-pyrazolo[3,4-d]pyrimidin-1-yl)ethyl)-N-methylacrylamide], for which the IC50 in test [7] amounted to 6.62 nM; in test [5], 6000 nM; in test [3] it was 1.58 nM; in test [6], 535 nM. Further, the GI50 in test [4] (Homo sapiens, DOHH-2, 72 hours) was determined as 690 nM.
As to `Nc1ncnc2c1c(-c1ccc(Oc3ccccc3)cc1)nn2C1CCN(C(=O)/C=C/CN2CCOCC2)CC1` [Compound 20], the IC50 in test [2] is 304 nM; in test [7], 98.6 nM; in test [5], > 10000 nM; in test [3], 4.07 nM; in test [6], 7990 nM. Halving of growth in test [4] (72 hours) (GI50) required 390 nM.
For the molecule `Nc1ncnc2c1c(-c1ccc(Oc3ccccc3)cc1)nn2C[C@@H]1CCCN1C(=O)/C=C/CN1CCOCC1` [Compound 21], the 50% inhibitory concentration (IC50) was 6240 nM in test [2]; 1350 nM in test [7]; > 10000 nM in test [5]; 4.15 nM in test [3]; > 10000 nM in test [6]. Also, in test [4] (72 hours), the GI50 turned out to be 1530 nM.
Take `C=CC(=O)NCCn1nc(-c2ccc(Oc3ccccc3)cc2)c2c(N)ncnc21` [Compound 23, N-(2-(4-amino-3-(4-phenoxyphenyl)-1H-pyrazolo[3,4-d]pyrimidin-1-yl)ethyl)acrylamide]: the IC50 is 70.5 nM in test [2]; 208 nM in test [7]; 3310 nM in test [5]; 0.32 nM in test [3]; 830 nM in test [6]. The GI50 in test [4] (Homo sapiens, DOHH-2, 72 hours) was 110 nM.
Take `Nc1ncnc2c1c(-c1ccc(Oc3ccccc3)cc1)nn2[C@@H]1CCCN(C(=O)/C=C/CN2CCOCC2)C1` [Compound 24, (E)-1-((R)-3-(4-amino-3-(4-phenoxyphenyl)-1H-pyrazolo[3,4-d]pyrimidin-1-yl)piperidin-1-yl)-4-morpholinobut-2-en-1-one]: the IC50 turned out to be 384 nM in test [2]; 235 nM in test [7]; 9080 nM in test [5]; 0.89 nM in test [3]; 476 nM in test [6]. The GI50 in test [4] (Homo sapiens, DOHH-2, 72 hours) was found to be 440 nM.
On to `Nc1ncnc2c1c(-c1ccc(Oc3ccccc3)cc1)nn2[C@H]1CC[C@@H](NC(=O)/C=C/CN2CCOCC2)CC1` [Compound 25, (E)-N-((1s,4s)-4-(4-amino-3-(4-phenoxyphenyl)-1H-pyrazolo[3,4-d]pyrimidin-1-yl)cyclohexyl)-4-morpholinobut-2-enamide], for which the IC50 in test [2] is 273 nM; in test [7], 25.8 nM; in test [5] it was > 10000 nM; in test [3], 3.48 nM; in test [6], > 10000 nM. This molecule also had a GI50 in test [4] (72 hours) of 50 nM.
Turning to “(E)-4-(N-(2-hydroxyethyl)-N-methylamino)-1-(3-(4-phenoxyphenyl)-1H-pyrazolo[3,4-d]pyrimidin-1-yl)piperidin-1-yl)but-2-en-1-one [Compound 3]”, the IC50 in test [2] is 74.5 nM; in test [3], 21 nM.
